# Experimental data reported in patent US20070148184A1, “Survivin-derived peptides and use thereof” (priority 2003, published 2007).
# Tests used:
# [1] = system: stage 1V melanoma patients; experiment: Vaccination of melanoma patients with peptide pulsed dendritic cells; conditions: human, in vivo
# From the text: All clinical procedures were in accordance with the Declaration of Helsinki and all patients provided informed consent prior to therapy. Stage 1V cutaneous or uveal melanoma patients were eligible when their disease was progressive despite at least two different chemo-, immuno, or chemoimmunotherapies. […] Important exclusion criteria were evidence of CNS metastases, active autoimmune or infectious diseases, pregnancy and lactation, as well as significant psychiatric abnormality. Peptide pulsed dendritic cells were generated as previously described (82). Briefly, PBMCs from leukapheresis were isolated on LymphoprepTM (Nycomed Pharma), frozen in aliquots and stored in liquid nitrogen. One week prior to vaccination, PBMCs were thawed, washed and cultured in medium containing gentamycin, glutamine and heat inactivated autologous plasma. On day 1 and 5, IL-4 and GM-CSF were added. To differentiate mature DCs, […] and prostaglandin E2 were added on day 6. […] Immunological responses were monitored by the ELISPOT assay, using PBMCs obtained every three months, to detect survivin96-104 specific IFN-γ release. […] The reaction was terminated upon the appearance of dark purple spots, which were quantitated using the AlphaImager System (Alpha Innotech, San Leandro, Calif., USA).
# HLA-A2 = target: T1, HLA-A2 (Homo sapiens, UniProt P04439, D140Y/D185E/D98H/E176V/E277Q/G131W/G231S/I119V/I121R/I166T/I218V/L300P/L318F/N151K/N90K/P208A/P217A/Q86G/Q94H/R138H/R169H/T345S); experiment: Assembly assay for peptide binding to class I MHC, HLA-A2; conditions: Example 1, Table 1; read-out: C50 (peptide concentration for half maximal binding to HLA-A2)
# T1 construct: stabilization of the class I molecules after loading of peptide to the peptide transporter deficient cell line T2; endogenous in cells; host or cells: T2 (TAP-deficient human hybrid cell line), metabolically labelled lysate
# Method: This assembly assay is carried out as described previously (12,13), and it is based on stabilisation of the HLA molecule after loading of peptide to the peptide transporter deficient cell line T2. Subsequently, correctly folded stable HLA heavy chains are immunoprecipitated using conformation dependent antibodies and the peptide binding is quantitated.
# Assembly assays for binding of the synthetic peptides to class I MHC molecules metabolically labeled with [35S]-methionine were carried out as described (12,13). The assembly assay is based on stabilization of the class I molecules after loading of peptide to the peptide transporter deficient cell line T2. Subsequently, correctly folded stable MHC heavy chains are immunoprecipitated using conformation-dependent antibodies. After IEF electrophoresis, gels were exposed to phosphoImager screens, and peptide binding was quantified using the Imagequant PhosphorImager program (Molecular Dynamics, Sunnyvale, Calif.).
# The binding affinity of synthetic peptides (Invitrogen, Carlsbad, Calif., USA) to HLA-A1, -A2, A3, or -A11 molecules metabolically labeled with [^35S]-methionine was measured in the assembly assay, as described previously (12). The assay is based on peptide-mediated stabilization of empty HLA molecules released upon cell lysis, from the TAP-deficient cell lines. […] MHC heavy chain bands were quantified using the ImageGauge Phosphorimager program (FUJI photo film Co., Carrollton, Tex., USA). The intensity of the band is proportional to the amount of peptide-bound class I MHC complex recovered during the assay. Subsequently, the extent of stabilization of the HLA-molecule is directly related to the binding affinity of the added peptide. The peptide concentration used to analyze the recovery of the HLA-molecules was 40, 4, 0.4, 0.04 μM for HLA-A1 and HLA-A11, and 100, 10, 1, 0.1, 0.01 μM for HLA-A2 and HLA-A3. The C50 value was subsequently calculated for each peptide as the peptide concentration sufficient for half maximal stabilization.
smiles,measurement,setting,value
CSCC[C@H](NC(=O)[C@@H](N)CC(C)C)C(=O)N[C@@H](CC(C)C)C(=O)NCC(=O)N[C@@H](CCC(=O)O)C(=O)N[C@@H](Cc1ccccc1)C(=O)N[C@@H](CC(C)C)C(=O)N[C@@H](CCCCN)C(=O)N[C@@H](CC(C)C)C(=O)O [Sur1M2],vaccination associated toxicity,[1],vaccination associated toxicity was not observed
same,EC50,HLA-A2,1000 nM
